Test results published in patent publication US20110159111A1, “PHARMACEUTICAL COMBINATIONS” (priority 2006, published 2011).
Like-named read-outs stand apart in the source and are kept apart here.

How the values were obtained:
[1] = Thermogravimetric analysis (TGA); type: physicochemical; details: heated at 10° C./min
Procedure: Approximately 5 mg of sample (accurately weighed) was placed into a platinum TGA pan and loaded into a TGA 7 gravimetric analyser. The sample under study was then heated at a rate of 10° C./min (from ambient to 300° C.) and the resulting change in weight monitored. A dry nitrogen purge gas at a flow rate of 20 ml/min was used to produce an inert atmosphere and prevent oxidation of the sample during heating. Prior to analysis the instrument was weight calibrated using a 100 mg reference standard and temperature calibrated using an Alumel reference standard (using the Curie point transition temperature).

[2] = Vapour sorption/desorption analysis (IgaSorp balance); type: physicochemical
Procedure: Approximately 20 mg of sample was placed into a wire-mesh vapour sorption balance pan and loaded into an ‘IgaSorp’ vapour sorption balance (Hiden Analytical Instruments) held at 25+/−0.1° C. The sample was then dried by maintaining a 0% humidity environment (using mass flow control apparatus) until no further weight change was recorded. Subsequently, the sample was then subjected to a ramping profile from 0-90% relative humidity (% RH) at 10% RH increments, maintaining the sample at each step until equilibration had been attained (99.5% step completion).
Upon reaching equilibration, the % RH within the apparatus was ramped to the next step and the equilibration procedure repeated. After completion of the sorption cycle, the sample was then dried using the same procedure. The weight change during the sorption/desorption cycles was then monitored, allowing for the hygroscopic nature of the sample to be determined.

[3] = tested on: Chronic Myeloid Leukaemia; details: CML patients in blast phase; cited from earlier work
[4] = Solubilities of acid addition salts of 1-(2,6-difluorophenyl)-N-[3-(5-morpholin-4-ylmethyl-1H-benzimidazol-2-yl)-1H-pyrazol-4-yl]-urea; type: physicochemical
Procedure: This was carried out as described in Example 61 of WO 2006/070195 at pages 173 to 175 (the content of which is incorporated herein by reference).

[5] = antitumour agent; cited from earlier work
[6] = Gravimetric vapour sorption (GVS); type: physicochemical; details: forms of 1-cyclopropyl-3-[3-(5-morpholin-4-ylmethyl-1H-benzoimidazol-2-yl)-1H-pyrazol-4-yl]-urea; 25° C., 0-95% RH
Procedure: E. Gravimetric Vapour Sorption (GVS):
The sample size was ca. 10-25 mg. […] The sample was loaded and unloaded at room humidity and temperature (ca. 40% RH, 25° C.) and analysed afterwards by XRPD (using a Bruker AXS C2 GADDS system).

[7] = tested on: human colon carcinoma cell line HCT 116; assay: Anti-proliferative activity, HCT-116 cell line (Set B); type: cell-based; details: HCT 116 (ECACC No. 91091005), Set B Example 1
Excerpt: Anti-proliferative Activity
See Example 15 of WO 2006/077426 at pages 100-101 (which is incorporated herein by reference).

[8] = clinical studies; cited from earlier work
[9] = tested on: chronic lymphocytic leukaemia; details: initial therapy, symptomatic CLL patients; cited from earlier work
[10] = tested on: PKC; details: cited from earlier work
[11] = tested on: OVCAR-3 tumour cells; details: concentrations of 50 and 100 microM; cited from earlier work
[12] = target: T1, PKG (Homo sapiens, UniProt Q13976); details: cited from earlier work
T1 sequence (Q13976 1-671): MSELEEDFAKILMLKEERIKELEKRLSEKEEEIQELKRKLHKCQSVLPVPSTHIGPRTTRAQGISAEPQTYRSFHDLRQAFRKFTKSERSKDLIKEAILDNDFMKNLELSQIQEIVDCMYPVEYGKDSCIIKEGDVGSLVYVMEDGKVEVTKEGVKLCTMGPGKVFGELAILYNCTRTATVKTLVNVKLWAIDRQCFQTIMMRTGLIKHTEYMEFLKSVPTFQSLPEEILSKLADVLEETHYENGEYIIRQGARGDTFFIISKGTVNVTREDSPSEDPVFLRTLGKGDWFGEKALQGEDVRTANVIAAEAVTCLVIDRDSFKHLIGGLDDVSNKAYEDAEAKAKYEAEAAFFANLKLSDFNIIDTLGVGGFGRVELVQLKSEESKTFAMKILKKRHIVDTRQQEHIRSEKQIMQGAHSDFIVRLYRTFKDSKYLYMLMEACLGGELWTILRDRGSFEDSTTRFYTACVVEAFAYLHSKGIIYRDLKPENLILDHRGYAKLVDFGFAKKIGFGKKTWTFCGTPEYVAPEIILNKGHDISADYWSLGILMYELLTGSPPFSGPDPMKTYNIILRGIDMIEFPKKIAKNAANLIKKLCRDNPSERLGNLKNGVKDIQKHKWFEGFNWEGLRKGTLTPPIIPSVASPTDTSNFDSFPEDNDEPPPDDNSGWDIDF

[13] = tested on: P-glycoprotein-overexpressing subline of CCRF-CEM; details: cited from earlier work
[14] = tested on: Acute Promyelocytic Leukemia; details: APL patients; cited from earlier work

With `CS(=O)(=O)N1CCC(NC(=O)c2n[nH]cc2NC(=O)c2c(Cl)cccc2Cl)CC1` the “TGA significant event (thermally induced partial degradation prior to melt)” value ([1]; ambient to 300° C.) was “about 288 °C”, the TGA mass loss ([1]; up to 150° C., crystals from Example 5 Step 8) was “approximately 0.2%” and the “weight loss during initial drying” value ([2]; 0% RH, 25° C.) was “approximately 0.01%”. For the same molecule, the “total weight increase upon equilibration” value ([2]; stepwise 0-90% RH, equilibration at 90% RH, 25° C.) was 0.24% and the “hygroscopicity / hydrate formation” value ([2]; storage in elevated humidity conditions) was “physically stable with regard to hygroscopicity”.

For `Cc1ccc(NC(=O)c2ccc(CN3CCN(C)CC3)cc2)cc1Nc1nccc(-c2cccnc2)n1` [imatinib, 4-[(4-methyl-1-piperazinyl)methyl]-N-[4-methyl-3-[[4-(3-pyridinyl)-2-ylpyridinyl]amino]-phenyl]benzamide methanesulfonate], the duration of remissions [3] is listed as 2-6 months.

In the case of “1-(2,6-difluorophenyl)-N-[3-(5-morpholin-4-ylmethyl-1H-benzimidazol-2-yl)-1H-pyrazol-4-yl]-urea [D-glucuronate]”, the solubility ([4]; acid addition salts of 1-(2,6-difluorophenyl)-N-[3-(5-morpholin-4-ylmethyl-1H-benzimidazol-2-yl)-1H-pyrazol-4-yl]-urea, liquid carrier (e.g. water)) is reported as “greater than 25 mg/ml”.

For `CCN[C@H]1CO[C@@H](O[C@H]2[C@H](O[C@H]3C#C/C=C\C#C[C@]4(O)CC(=O)C(NC(=O)OC)=C3/C4=C\CSSSC)O[C@H](C)[C@@H](NO[C@H]3C[C@H](O)[C@H](SC(=O)c4c(C)c(I)c(O[C@@H]5O[C@@H](C)[C@H](O)[C@@H](OC)[C@H]5O)c(OC)c4OC)[C@@H](C)O3)[C@@H]2O)C[C@@H]1OC` [Calicheamicin], the “potency relative to adriamycin” value [5] is given as “over 1,000 times”.

With `C[C@H](O)C(=O)O.O=C(Nc1c[nH]nc1-c1nc2cc(CN3CCOCC3)ccc2[nH]1)NC1CC1` [L-lactate salt, 1-cyclopropyl-3-[3-(5-morpholin-4-ylmethyl-1H-benzoimidazol-2-yl)-1H-pyrazol-4-yl]-urea] the GVS isotherm behaviour [6] was “does not display hygroscopic behaviour and does not form a hydrate”.

With `O=C(NC1CCNCC1)c1n[nH]cc1NC(=O)c1c(Cl)cccc1Cl` [Example 1] the IC50 [7] was < 20 µM.

For `CCCCCCCCCCCCCCCCCCOP(=O)([O-])OC1CC[N+](C)(C)CC1` [KRX-0401], the half-life [8] is listed as ~100 h.

For `O=C(Nc1c[nH]nc1-c1nc2cc(CN3CCOCC3)ccc2[nH]1)Nc1c(F)cccc1F` [esylate, 1-(2,6-difluorophenyl)-N-[3-(5-morpholin-4-ylmethyl-1H-benzimidazol-2-yl)-1H-pyrazol-4-yl]-urea], the solubility [4] was > 100 mg/mL.

In the case of `Nc1nc(F)nc2c1ncn2[C@@H]1O[C@H](CO)[C@@H](O)[C@@H]1O` [fludarabine], the “duration of progression-free survival” value [9] is listed as 33 months and the “rate of complete responses” value [9] is listed as 27%.

For `O=S(=O)(NCCNCC=C(c1ccccc1)c1ccccc1)c1cccc2cnccc12` [NL-71-101], the IC50 [10] is given as 104 µM, the apoptosis [11] is given as “induced apoptosis” and the IC50 [12] is given as 36 µM.

For `C/C1=C/C[C@@H](/C(C)=C/c2csc(C)n2)OC(=O)C[C@H](O)C(C)(C)C(=O)[C@H](C)[C@@H](O)[C@@H](C)CCC1` [desoxyepothilone B], the IC50 [13] is listed as 0.017 µM.

In the case of `CC1=C(/C=C/C(C)=C/C=C/C(C)=C/C(=O)O)C(C)(C)CCC1` [Tretinoin, all-trans retinoic acid], the remissions induced [14] is given as 64-100%.
